ChEMBL document CHEMBL5257074, “Structure Elucidation and Biosynthesis of Nannosterols A and B, Myxobacterial Sterols from Nannocystis sp. MNa10993” (J Nat Prod, 2023)
Activity calls are given as the source filed them.

Legend:
[1] = tested on: Staphylococcus aureus; assay: Antibacterial activity against Staphylococcus aureus Newman assessed as inhibition of bacterial growth measured after 18 to 28 hrs by microbroth dilution assay; assay type: functional, organism-based; conditions: time 18-28 hrs
[2] = tested on: Escherichia coli; assay: Antibacterial activity against Escherichia coli DSM 1116T assessed as inhibition of bacterial growth measured after 18 to 48 hrs by microbroth dilution assay; assay type: functional, organism-based; conditions: time 18-48 hrs
[3] = tested on: Escherichia coli; assay: Antibacterial activity against Escherichia coli JW0451-2 assessed as inhibition of bacterial growth measured after 18 to 48 hrs by microbroth dilution assay; assay type: functional, organism-based; conditions: time 18-48 hrs
[4] = tested on: Mycolicibacterium smegmatis; assay: Antibacterial activity against Mycobacterium smegmatis (DSM 43756) assessed as inhibition of bacterial growth measured after 18 to 28 hrs by microbroth dilution assay; assay type: functional, organism-based; conditions: time 18-28 hrs
[5] = tested on: Mucor hiemalis; assay: Antifungal activity against Mucor hiemalis DSM 2656 assessed as inhibition of fungal growth measured after 18 to 48 hrs by microbroth dilution assay; assay type: functional, organism-based; conditions: time 18-48 hrs
[6] = tested on: Pseudomonas aeruginosa; assay: Antibacterial activity against Pseudomonas aeruginosa PA14 (DSM 19882) assessed as inhibition of bacterial growth measured after 18 to 48 hrs by microbroth dilution assay; assay type: functional, organism-based; conditions: time 18-48 hrs
[7] = tested on: HepG2; assay: Antiproliferative activity against human HepG2 cells incubated for 5 days by MTT assay; assay type: functional, cell-based; conditions: time 5.0 day
[8] = tested on: Candida albicans; assay: Antifungal activity against Candida albicans DSM 1665 assessed as inhibition of fungal growth measured after 18 to 48 hrs by microbroth dilution assay; assay type: functional, organism-based; conditions: time 18-48 hrs
[9] = tested on: Bacillus subtilis; assay: Antibacterial activity against Bacillus subtilis DSM10T assessed as inhibition of bacterial growth measured after 18 to 28 hrs by microbroth dilution assay; assay type: functional, organism-based; conditions: time 18-28 hrs

Measured: Activity

C[C@H](CC[C@@H](O)C(C)(C)O)[C@H]1C[C@@H](O)[C@H]2[C@@H]3C(=O)C[C@H]4C[C@@H](O)CC[C@]4(C)[C@H]3CC[C@@]21C
inactive: [1] | [2] | [3] | [4] | [5] | [6] | [7] | [8] | [9]

C[C@H](CC[C@@H](O)C(C)(C)O)[C@H]1C[C@@H](O)[C@H]2[C@@H]3C(=O)C[C@H]4C[C@@H](O)CC[C@]4(C)[C@H]3CC[C@@]21CO
inactive: [1] | [2] | [3] | [4] | [5] | [6] | [7] | [8] | [9]
